Reference: patent US20260355323A1, “CEREBLON-RECRUITING BCL-XL/BCL-2 DUAL DEGRADERS” (University of Florida Research Foundation, Incorporated, priority 2022, published 2026)

Legend:
[1] = system: HUVEC irradiation-induced senescent cells (IR-SC); assay: Senolytic activity, cell viability (PrestoBlue HS), HUVEC IR-SC; type: cell-based; conditions: Homo sapiens, 72 h
Description: To induce senescence in WI-38 and HUVEC, cells were subjected to x-ray irradiation at 20 Gray using X-RAD 320 biological irradiator. Following between 10 to 15 days after irradiation, senescence was induced in cells, and irradiation-induced senescent cells (IR-SC) were then used for cell viability and Western blotting tests.
(§1) WI-38 and HUVEC cells were incubated with increasing concentrations of degraders for 72 h. Cell viability was measured using PrestoBlue HS cell viability reagent.

Bcl-xL [2] = biological target: T1, Bcl-xL (Homo sapiens, UniProt Q07817); assay: Bcl-xL protein degradation in Jurkat cells (immunoblot); type: cell-based; conditions: 16 h
T1 construct: immunoblot after 16 h degrader treatment
Description: (§2) Jurkat and Hela cells were incubated with increasing concentrations of test compounds for 16 h. The cells were harvested and lysed in RIPA lysis buffer supplemented with protease and phosphatase inhibitor cocktails. An equal amount of protein (20 μg/lane) was resolved on a pre-cast 4-20% SDS-PAGE gel. Proteins were subsequently transferred to NOVEX PVDF membranes by electrophoresis. The membranes were blocked in blocking buffer (5% non-fat dry milk in TBS-T), and incubated with primary antibodies (at optimized concentrations) overnight at 4° C. After three washings in TBS-T, the membranes were incubated with an appropriate FIRP-conjugated secondary antibody for 1 h at room temperature. After extensive washing for three times, the proteins of interest were detected with ECL western blotting detection reagents and recorded with autoradiography (Pierce Biotech, Rockford, IL, USA). The primary antibodies for Bcl-xL (Cat #2762), Bcl-2 (Cat #2872), Bcl-w (Cat #2724) and β-actin (Cat #4970) were purchased from Cell Signaling Technology. The relative band intensity was measured using ImageJ software and normalized to β-actin.

[3] = system: WI-38 irradiation-induced senescent cells (IR-SC); assay: Senolytic activity, cell viability (PrestoBlue HS), WI-38 IR-SC; type: cell-based; conditions: Homo sapiens, 72 h
Procedure, shortened: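 WI-38 and HUVEC were made senescent by 20 Gy x-ray irradiation and used 10–15 days later. Senescent cells were exposed to increasing degrader concentrations for 72 h. Viability was read with PrestoBlue HS.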

[4] = system: MOLT-4 acute lymphoblastic leukemia cells; assay: Cell viability, tetrazolium-based MTS assay, MOLT-4; conditions: Homo sapiens, MOLT-4, 48 h; read-out: Anti-Cancer Activity EC50 (48 hr), MOLT-4
Description: (§3) Acute lymphoblastic leukemia cells (MOLT-4 and RS4;11) were incubated with increasing concentrations of Bcl-xL/Bcl-2 degraders for 48 h. Cell viability was measured by tetrazolium-based MTS assay.

Bcl-xL [5] = biological target: T1, Bcl-xL; assay: Bcl-xL protein degradation in Hela cells (immunoblot); type: cell-based; conditions: 16 h
Description: as §2

WI-38 NC = assay: Senolytic activity, cell viability (PrestoBlue HS), WI-38 NC; type: cell-based; conditions: Homo sapiens, 72 h
Description: as §1

[6] = system: RS4;11 acute lymphoblastic leukemia cells; assay: Cell viability, tetrazolium-based MTS assay, RS4;11; conditions: Homo sapiens, RS4;11, 48 h, read-out: Anti-Cancer Activity EC50 (48 hr), RS4
Description: as §3

HUVEC NC = assay: Senolytic activity, cell viability (PrestoBlue HS), HUVEC NC; type: cell-based
Description: as §1

platelets = conditions: animals and/or humans; cited from earlier work
[7] = system: venetoclax resistant CLL cells; conditions: cited from earlier work

T1 sequence (Q07817 whole entry): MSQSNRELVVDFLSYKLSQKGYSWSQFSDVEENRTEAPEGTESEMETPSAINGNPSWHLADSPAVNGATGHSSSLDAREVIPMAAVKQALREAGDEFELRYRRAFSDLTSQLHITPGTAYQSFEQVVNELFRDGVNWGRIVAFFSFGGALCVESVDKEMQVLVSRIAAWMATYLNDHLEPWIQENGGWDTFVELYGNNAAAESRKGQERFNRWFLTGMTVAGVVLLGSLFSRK
T1 sequence (Q96SW2 whole entry partner): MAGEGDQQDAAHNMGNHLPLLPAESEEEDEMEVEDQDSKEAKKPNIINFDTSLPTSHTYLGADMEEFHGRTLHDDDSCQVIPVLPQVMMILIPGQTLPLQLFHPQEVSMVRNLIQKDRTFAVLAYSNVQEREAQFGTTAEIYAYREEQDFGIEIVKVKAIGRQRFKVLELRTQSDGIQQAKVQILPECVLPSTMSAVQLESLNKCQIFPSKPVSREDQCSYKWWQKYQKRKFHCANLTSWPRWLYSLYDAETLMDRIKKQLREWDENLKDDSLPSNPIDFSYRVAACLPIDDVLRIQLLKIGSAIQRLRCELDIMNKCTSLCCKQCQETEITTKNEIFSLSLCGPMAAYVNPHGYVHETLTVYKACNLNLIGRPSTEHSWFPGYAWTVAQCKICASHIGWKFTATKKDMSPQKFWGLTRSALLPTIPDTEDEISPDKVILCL

EC50 [4] | EC50 [6] | Structure (SMILES) | EC50 [1] | degradation of Bcl-xL (Bcl-xL [2]) | EC50 [3] | degradation of Bcl-xL (Bcl-xL [5]) | EC50 (WI-38 NC) | Senolytic Activity EC50 (72 hr), HUVEC NC (HUVEC NC) | dose-limiting thrombocytopenia (platelets) | efficacy in killing venetoclax resistant CLL cells [7]
< 1 nM | < 1 nM | C[C@@]1(CN2CCC(CN3CCCN(c4ccc5c(c4)CN(C4CCC(=O)NC4=O)C5=O)CC3)CC2)CCC(c2ccc(Cl)cc2)=C(CN2CCN(c3ccc(C(=O)NS(=O)(=O)c4ccc(N[C@H](CCN5CCCOCC5)CSc5ccccc5)c(S(=O)(=O)C(F)(F)F)c4)cc3)CC2)C1 (stereo partly drawn) [Compound 44, N-((4-(((R)-4-(1,4-oxazepan-4-yl)-1-(phenylthio)butan-2-yl)amino)-3-((trifluoromethyl)sulfonyl)phenyl)sulfonyl)-4-(4-(((4R)-4′-chloro-4-((4-((4-(2-(2,6-dioxopiperidin-3-yl)-1-oxoisoindolin-5-yl)-1,4-diazepan-1-yl)methyl)piperidin-1-yl)methyl)-4-methyl-3,4,5,6-tetrahydro-[1,1′-biphenyl]-2-yl)methyl)piperazin-1-yl)benzamide] | < 1 nM | degrade Bcl-xL in a dose-dependent manner | 1 to 10 nM | degrade Bcl-xL in a dose-dependent manner | > 10000 nM | ++ (100-10 μM) | – | –
– | – | CC1(C)CCC(c2ccc(Cl)cc2)=C(CN2CCN(c3ccc(C(=O)NS(=O)(=O)c4ccc(N[C@H](CCN5CCOCC5)CSc5ccccc5)c(S(=O)(=O)C(F)(F)F)c4)cc3)CC2)C1 [ABT-263, navitoclax] | – | – | – | – | – | – | dose-limiting thrombocytopenia has been observed | high efficacy
